In PubChem BioAssay (NCI):
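A five-concentration, 48-hour dose response in 96-well plates underlies each endpoint, interpolated linearly between surrounding concentrations. GI50: concentration for 50% inhibition of growth. Definition used: TGI = concentration required for complete inhibition of growth.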

Columns and labels:
Test in all cases: NCI-60 cell line screen, 48 h
MALME-3M melanoma = test system: MALME-3M melanoma
NCI-H226 lung = test system: NCI-H226 lung
EKVX NSCLC = test system: EKVX NSCLC
HOP-92 NSCLC = test system: HOP-92 NSCLC
M14 melanoma = test system: M14 melanoma
K-562 leukemia = test system: K-562 leukemia
OVCAR-4 ovarian = test system: OVCAR-4 ovarian
RXF 393 renal = test system: RXF 393 renal
NCI-H460 lung = test system: NCI-H460 lung
NCI/ADR-RES ovarian = test system: NCI/ADR-RES ovarian
CCRF-CEM leukemia = test system: CCRF-CEM leukemia
LOX IMVI melanoma = test system: LOX IMVI melanoma
SF-539 CNS = test system: SF-539 CNS
ACHN renal = test system: ACHN renal
SK-MEL-2 melanoma = test system: SK-MEL-2 melanoma
SK-OV-3 ovarian = test system: SK-OV-3 ovarian
SF-295 CNS = test system: SF-295 CNS
SR leukemia = test system: SR leukemia
SNB-19 CNS = test system: SNB-19 CNS
HS 578T breast = test system: HS 578T breast
SW-620 colon = test system: SW-620 colon
HOP-62 NSCLC = test system: HOP-62 NSCLC
IGROV1 ovarian = test system: IGROV1 ovarian
786-0 renal = test system: 786-0 renal
UACC-62 melanoma = test system: UACC-62 melanoma
UO-31 renal = test system: UO-31 renal
RPMI-8226 leukemia = test system: RPMI-8226 leukemia
HL-60(TB) leukemia = test system: HL-60(TB) leukemia
HCT-15 colon = test system: HCT-15 colon
A498 renal = test system: A498 renal
TK-10 renal = test system: TK-10 renal
HCT-116 colon = test system: HCT-116 colon
MDA-MB-435 = test system: MDA-MB-435
NCI-H522 lung = test system: NCI-H522 lung
MDA-MB-231 breast = test system: MDA-MB-231 breast
MCF7 breast = test system: MCF7 breast
CAKI-1 renal = test system: CAKI-1 renal
KM12 colon = test system: KM12 colon
BT-549 breast = test system: BT-549 breast
U251 CNS = test system: U251 CNS
OVCAR-8 ovarian = test system: OVCAR-8 ovarian
NCI-H23 lung = test system: NCI-H23 lung
SK-MEL-28 melanoma = test system: SK-MEL-28 melanoma
SNB-75 CNS = test system: SNB-75 CNS
OVCAR-3 ovarian = test system: OVCAR-3 ovarian
HT29 colon = test system: HT29 colon
MOLT-4 leukemia = test system: MOLT-4 leukemia
DU-145 prostate = test system: DU-145 prostate
OVCAR-5 ovarian = test system: OVCAR-5 ovarian
T-47D breast = test system: T-47D breast
SK-MEL-5 melanoma = test system: SK-MEL-5 melanoma
COLO 205 colon = test system: COLO 205 colon
SN12C renal = test system: SN12C renal
HCC-2998 colon = test system: HCC-2998 colon
SF-268 CNS = test system: SF-268 CNS
PC-3 prostate = test system: PC-3 prostate
UACC-257 melanoma = test system: UACC-257 melanoma
A549 NSCLC = test system: A549 NSCLC

O=C(/C(=C/c1ccccc1)CN1CCCCC1)c1ccccc1
GI50 (MALME-3M melanoma): 1160 nM
TGI (MALME-3M melanoma): 3580 nM
GI50 (NCI-H226 lung): 1530 nM
TGI (NCI-H226 lung): 3820 nM
GI50 (EKVX NSCLC): 2510 nM
TGI (EKVX NSCLC): 9230 nM
GI50 (HOP-92 NSCLC): 2680 nM
TGI (HOP-92 NSCLC): 6740 nM
GI50 (M14 melanoma): 1230 nM
TGI (M14 melanoma): 2880 nM
GI50 (K-562 leukemia): 566 nM
TGI (K-562 leukemia): > 33600 nM
GI50 (OVCAR-4 ovarian): 2050 nM
TGI (OVCAR-4 ovarian): 9530 nM
GI50 (RXF 393 renal): 481 nM
TGI (RXF 393 renal): 1210 nM
GI50 (NCI-H460 lung): 2050 nM
TGI (NCI-H460 lung): 4910 nM
GI50 (NCI/ADR-RES ovarian): 1060 nM
TGI (NCI/ADR-RES ovarian): 4640 nM
GI50 (CCRF-CEM leukemia): 346 nM
TGI (CCRF-CEM leukemia): > 45300 nM
GI50 (LOX IMVI melanoma): 364 nM
TGI (LOX IMVI melanoma): 1500 nM
GI50 (SF-539 CNS): 2800 nM
TGI (SF-539 CNS): 10100 nM
GI50 (ACHN renal): 518 nM
TGI (ACHN renal): 1440 nM
GI50 (SK-MEL-2 melanoma): 1600 nM
TGI (SK-MEL-2 melanoma): 4010 nM
GI50 (SK-OV-3 ovarian): 2750 nM
TGI (SK-OV-3 ovarian): 7690 nM
GI50 (SF-295 CNS): 2420 nM
TGI (SF-295 CNS): 7080 nM
GI50 (SR leukemia): 271 nM
TGI (SR leukemia): 5780 nM
GI50 (SNB-19 CNS): 3900 nM
TGI (SNB-19 CNS): 15700 nM
GI50 (HS 578T breast): 5030 nM
TGI (HS 578T breast): 65600 nM
GI50 (SW-620 colon): 398 nM
TGI (SW-620 colon): 1530 nM
GI50 (HOP-62 NSCLC): 2880 nM
TGI (HOP-62 NSCLC): 9930 nM
GI50 (IGROV1 ovarian): 1890 nM
TGI (IGROV1 ovarian): 6250 nM
GI50 (786-0 renal): 1790 nM
TGI (786-0 renal): 3640 nM
GI50 (UACC-62 melanoma): 1420 nM
TGI (UACC-62 melanoma): 4360 nM
GI50 (UO-31 renal): 996 nM
TGI (UO-31 renal): 2300 nM
GI50 (RPMI-8226 leukemia): 800 nM
TGI (RPMI-8226 leukemia): 5130 nM
GI50 (HL-60(TB) leukemia): 1220 nM
TGI (HL-60(TB) leukemia): 10200 nM
GI50 (HCT-15 colon): 617 nM
TGI (HCT-15 colon): 3340 nM
GI50 (A498 renal): 1630 nM
TGI (A498 renal): 3100 nM
GI50 (TK-10 renal): 662 nM
TGI (TK-10 renal): 1740 nM
GI50 (HCT-116 colon): 468 nM
TGI (HCT-116 colon): 1440 nM
GI50 (MDA-MB-435): 570 nM
TGI (MDA-MB-435): 5210 nM
GI50 (NCI-H522 lung): 365 nM
TGI (NCI-H522 lung): 884 nM
GI50 (MDA-MB-231 breast): 1960 nM
TGI (MDA-MB-231 breast): 5750 nM
GI50 (MCF7 breast): 464 nM
TGI (MCF7 breast): 2850 nM
GI50 (CAKI-1 renal): 337 nM
TGI (CAKI-1 renal): 2840 nM
GI50 (KM12 colon): 2090 nM
TGI (KM12 colon): 6880 nM
GI50 (BT-549 breast): 1920 nM
TGI (BT-549 breast): 3850 nM
GI50 (U251 CNS): 1350 nM
TGI (U251 CNS): 3220 nM
GI50 (OVCAR-8 ovarian): 616 nM
TGI (OVCAR-8 ovarian): 4290 nM
GI50 (NCI-H23 lung): 1490 nM
TGI (NCI-H23 lung): 4300 nM
GI50 (SK-MEL-28 melanoma): 1630 nM
TGI (SK-MEL-28 melanoma): 3500 nM
GI50 (SNB-75 CNS): 3760 nM
TGI (SNB-75 CNS): 17800 nM
GI50 (OVCAR-3 ovarian): 679 nM
TGI (OVCAR-3 ovarian): 2160 nM
GI50 (HT29 colon): 518 nM
TGI (HT29 colon): 1270 nM
GI50 (MOLT-4 leukemia): 403 nM
TGI (MOLT-4 leukemia): 31800 nM
GI50 (DU-145 prostate): 1520 nM
TGI (DU-145 prostate): 5780 nM
GI50 (OVCAR-5 ovarian): 1980 nM
TGI (OVCAR-5 ovarian): 3980 nM
GI50 (T-47D breast): 801 nM
TGI (T-47D breast): 3200 nM
GI50 (SK-MEL-5 melanoma): 1430 nM
TGI (SK-MEL-5 melanoma): 2940 nM
GI50 (COLO 205 colon): 447 nM
TGI (COLO 205 colon): 1410 nM
GI50 (SN12C renal): 1670 nM
TGI (SN12C renal): 4760 nM
GI50 (HCC-2998 colon): 1680 nM
TGI (HCC-2998 colon): 3110 nM
GI50 (SF-268 CNS): 2630 nM
TGI (SF-268 CNS): 15000 nM
GI50 (PC-3 prostate): 2200 nM
TGI (PC-3 prostate): 9260 nM
GI50 (UACC-257 melanoma): 1250 nM
TGI (UACC-257 melanoma): 3350 nM
GI50 (A549 NSCLC): 1840 nM
TGI (A549 NSCLC): 3920 nM
